Consider 17 compounds from patent US4742073A (priority 1982, dated 1988).

Where two headings read alike, the source gives them in different places.

In general, log P refers to a log measure of how a compound divides between an organic and an aqueous phase.

A short description of data set [1]: physchem. It is filed as physicochemical. The source says: The assays would allow a formation of isopilocarpine or isopilocarpic acid of 1% to be detected.
Data set [2] can be described thus: Apparent partition coefficient 1-octanol/phosphate buffer pH 7.4. It is filed as physicochemical. The note with it: for log P: pH 7.4.
Data set [3] relates to eyes of the rabbits. Put plainly: Ophthalmic pupillary diameter or miosis study. It is filed as in vivo, male albino rabbits. The note with it: for duration of miotic effect compared with pilocarpine / overall miotic effect compared with pilocarpine: 25 μl topical, pH 4.5, FIG. 3, in words; for duration of miotic activity of the di-esters: FIG. 5, 0.5% pilocarpine nitrate equivalent. The method, then:
Twenty-five microliter volumes of each solution were administered by topical ophthalmic instillation to male albino rabbits, and pupillary diameter changes or miotic activities in the eyes of the rabbits were recorded as a function of time, and were compared. A detailed description of the procedure for the miosis study is given in Mitra & Mikkelson (1982) and references cited therein. […] Thus, the miotic activity observed after administration of a solution of O-benzoyl pilocarpic acid 4-methylbenzyl ester lasted for 4.5 hours as shown in FIG. 4. The equivalent concentrations and pH were the same as in the above experiment.
The compounds are: 4-methylbenzyl pilocarpic acid ester, O-benzoyl pilocarpic acid 4-methylbenzyl ester, and O-acetyl pilocarpic acid 4-methylbenzyl ester. In each of these three derivatives the R1 -substituent is the 4-methylbenzyloxy group. […] Duration of the activity of the di-esters is seen to be approximately 4.5 hours.
In FIG. 6 the compounds are the O-benzoyl 4-chlorobenzyl, the O-phenylacetyl benzyl, and the O-3-chlorobenzoyl benzyl pilocarpic acid esters. In FIG. 7 the compounds are the O-benzoyl benzyl, the O-butyryl 4-methylbenzyl and the O-nicotionyl benzyl pilocarpic acid esters. […] Again, the extended duration is apparent. Thus, even though the dosage level is less than in the previous experiments, the miotic effect is apparent for up to 4.5 hours after administration.

Data set [4] is described as follows: pKa, solubility and other physicochemical properties. Conditions: in words.
The nature of data set [5]: Degradation of O-acyl pilocarpic acid esters and formation of pilocarpine in 75% human plasma. It is filed as in vitro ADME. Conditions: for half-life: 75% plasma. The source says: ^b In 75% human plasma (pH 7.4) the 4methylbenzyl ester of pilocarpic
O--acyl esters as determined by HPLC.

Data set [6] in a line: Shelf-life / stability of aqueous solutions. It is filed as physicochemical. The method, then:
At such pH values the stability is much increased as compared with that at neutral and basic pH values. […] At these pH values solutions of the compound were predicted to have shelf-lives in excess of 8 years at 25° C. and 20 years at 20° C. as determined on the basis of temperature-accelerated kinetic stability studies.

The nature of data set [7]: Hydrolysis/stability of O-acyl pilocarpic acid esters in plasma-free buffer (specific base catalysis). Format: physicochemical. Conditions: for kOH (catalytic rate constant, specific base-catalyzed hydrolysis): 37° C., based on hydroxide ion activity; for half-life: buffer. On the procedure: ^c The hydrolysis is specific basecatalyzed and the data shown were
obtained by extrapolating experimental rate constants at pH 10-12 to pH
7.4. At 20° C. the t0.5 values were 4.5 and 1.4 years, […]

The mark [8] stands for this setting: octanol/phosphate buffer, pH 7.4, Partition coefficients (P).
[9] abbreviates: 0.5% pilocarpine nitrate equivalent.
Where [10] appears, read: 75% human plasma (pH 7.4) at 37° C., in words.
[11] abbreviates: 75% human plasma (pH 7.4) at 37° C., read-out: half-lives of degradation in 75% human plasma.
The mark [12] stands for this setting: octanol/buffer, pH 7.4, di-esters (Table 3), read-out: log P octanol/buffer pH 7.4.
[13] abbreviates: octanol/phosphate buffer, pH 7.4, octanol / 0.05 M phosphate buffer pH 7.40, O-acyl derivatives of pilocarpic acid 4-methylbenzyl ester (Table 2), read-out: Partition coefficients (P) (converted).
The mark [14] stands for this setting: pH 7.4, 20° C., hydrolysis in buffer pH 7.4, extrapolated (Table 2 footnote c), read-out: t0.5 values at 20° C. (converted).
Setting [15] is: pH 7.4, 37° C., extrapolated from rate constants at pH 10-12 to pH 7.4, read-out: t0.5 of hydrolysis to pilocarpic acid 4-methylbenzyl ester, pH 7.4 buffer (converted).
The mark [16] stands for this setting: 25 μl of 0.25% (pilocarpine nitrate equivalent), FIGS. 6 and 7.
Where [17] appears, read: human, pH 7.4, 37° C., di-esters (Table 3), read-out: t0.5 human plasma (75%).

With `CCCCOC(=O)[C@@H](CC)[C@H](CO)Cc1cncn1C` [Example 2, Pilocarpic Acid Butyl Ester], the half-life in data set [1] (buffer, pH 7.4) worked out at 13.7 h. Moreover, the logD in data set [2] (setting [8]) is 1.58.

For the compound `CC[C@H](C(=O)OCc1ccccc1)[C@H](CO)Cc1cncn1C` [Example 3, Pilocarpic Acid Benzyl Ester], in data set [3] (setting [9]), the “duration of miotic effect compared with pilocarpine” value is “most significantly and dramatically longer”; the “overall miotic effect compared with pilocarpine” value is listed as “significantly greater in their overall effect”. Further, in data set [1] (buffer, pH 7.4), the half-life is 0.833 h. The hygroscopicity entry in data set [4] is “hygroscopic”. Further, the logD in data set [2] (setting [8]) was 1.82.

As for `CC[C@H](C(=O)OCc1ccc(Cl)cc1)[C@H](CO)Cc1cncn1C` [Example 4, Pilocarpic Acid 4-Chlorobenzyl Ester], in data set [3] (setting [9]), the “duration of miotic effect compared with pilocarpine” value was “most significantly and dramatically longer”; the “overall miotic effect compared with pilocarpine” value is on record as “significantly greater in their overall effect”. Further, in data set [1] (buffer, pH 7.4), the half-life is 0.5 h. Moreover, the logD in data set [2] (setting [8]) was 2.54.

In the case of `CC[C@H](C(=O)OCc1ccc(C)cc1)[C@H](CO)Cc1cncn1C` [Example 5, Pilocarpic Acid 4-Methylbenzyl Ester], in data set [3] (setting [9]), the “duration of miotic effect compared with pilocarpine” value was “most significantly and dramatically longer”. Also, the “overall miotic effect compared with pilocarpine” value in data set [3] (setting [9]) is “significantly greater in their overall effect”. The “extent of cyclization to pilocarpine in plasma” value in data set [5] (setting [10]) is “cyclized quantitatively to pilocarpine”. In addition, the half-life is 1.38 h in data set [5] (75% human plasma (pH 7.4) at 37° C., after formation from the O-acyl esters); 1.28 h in data set [1] (buffer, pH 7.4); 1.28 h in data set [1] (plasma-free buffer). In addition, the “shelf-life (time for 10% decomposition) at 4° C.” value in data set [6] (aqueous solution pH 4.0, 4° C.) is reported as 3.8 years. Moreover, the “shelf-life (time for 10% decomposition) at 20° C.” value in data set [6] (aqueous solution pH 4.0, 20° C.) is recorded as “about 1.5 years”. Also, in data set [2] (setting [8]), the logD is 2.31.

For `CC[C@H](C(=O)OCc1ccccc1C)[C@H](CO)Cc1cncn1C` [Example 6, Pilocarpic Acid 2-Methylbenzyl Ester], the logD in data set [2] (setting [8]) is 2.27.

Consider `CC[C@H](C(=O)OCCc1ccccc1)[C@H](CO)Cc1cncn1C` [Example 9, Pilocarpic Acid 2-Phenylethyl Ester], for which the “log P” value in data set [2] (octanol/phosphate buffer) was found to be 2.16. Besides, in data set [2] (setting [8]), the logD is 2.16.

Consider `CC[C@H](C(=O)OCc1ccc(C)cc1)[C@H](COC(=O)c1ccccc1)Cc1cncn1C` [Example 11, O-Benzoyl Pilocarpic Acid 4-Methylbenzyl Ester], for which the “duration of miotic activity” value in data set [3] (25 μl, 0.5% pilocarpine nitrate equivalent, FIG. 4) came out at 4.5 h. In addition, the “bioavailability relative to pilocarpine” value in data set [3] (FIG. 4, 0.5% pilocarpine nitrate equivalent) is “approximately 4 fold”. In addition, in data set [3], the “duration of miotic activity of the di-esters” value was “approximately 4.5 hours”. In data set [5] (setting [10]), the “yield of pilocarpic acid 4-methylbenzyl ester formed in plasma” value is “quantitative amounts”. In data set [5] (75% human plasma, FIG. 2), the “sum of the concentrations of O-benzoyl di-ester, intermediate ester and pilocarpine at any time” value worked out at 100±3%. Also, the half-life in data set [5] (setting [11]) was 0.267 h; in data set [7] (setting [14]), 1640 days; in data set [7] (setting [15]), 200 days. Further, the logD in data set [2] (setting [12]) and in data set [2] (setting [13]) was 4.7 in each case. Besides, the “kOH (catalytic rate constant, specific base-catalyzed hydrolysis)” value (“kOH” for short) in data set [7] was 0.0667 M⁻¹ s⁻¹.

Turning to `CC[C@H](C(=O)OCc1ccc(C)cc1)[C@H](COC(C)=O)Cc1cncn1C` [Example 12, O-Acetyl Pilocarpic Acid 4-Methylbenzyl Ester], the “duration of miotic activity of the di-esters” value in data set [3] is on record as “approximately 4.5 hours”. Also, the “yield of pilocarpic acid 4-methylbenzyl ester formed in plasma” value in data set [5] (setting [10]) is “quantitative amounts”. Also, the figures for the half-life in data set [5] (setting [11]), in data set [7] (setting [14]) and in data set [7] (setting [15]) were 0.4 h, 511 days and 62.5 days, respectively. In addition, the logD in data set [2] (setting [12]) was 3.16; in data set [2] (octanol/phosphate buffer, pH 7.4, octanol / 0.05 M phosphate buffer pH 7.40 (Table 2), read-out: log P) it was 3.16; in data set [2] (setting [13]), 3.16. Further, in data set [7], the “kOH” value is 0.21 M⁻¹ s⁻¹.

Turning to `CC[C@H](C(=O)OC(C)c1ccccc1)[C@H](CO)Cc1cncn1C` (some centres unmarked) [Example 13, Pilocarpic Acid 1-Phenylethyl Ester], the “log P” value in data set [2] (octanol/phosphate buffer) worked out at 2.08. The logD in data set [2] (setting [8]) was 2.08.

For the compound `CC[C@H](C(=O)OCc1ccccc1)[C@H](COC(=O)c1ccccc1)Cc1cncn1C` [Example 14, O-Benzoyl Pilocarpic Acid Benzyl Ester], the “time for which miotic effect is apparent” value in data set [3] (setting [16]) is “up to 4.5 hours”. Moreover, in data set [5] (setting [17]), the half-life was found to be 0.2 h. Besides, the “predicted shelf-life at 20° C.” value in data set [6] (aqueous solution pH 3-5, 20° C., temperature-accelerated kinetic stability studies) is listed as greater than 20 years. The “predicted shelf-life at 25° C.” value in data set [6] (aqueous solution pH 3-5, 25° C., temperature-accelerated kinetic stability studies) is listed as greater than 8 years. Besides, the “pH region of maximum stability” value in data set [6] (aqueous solutions) was 3-5 pH. Besides, the logD in data set [2] (setting [12]) came out at 4.22. Besides, the “kOH” value in data set [7] was 0.0633 M⁻¹ s⁻¹.

Turning to `CC[C@H](C(=O)OCc1ccc(Cl)cc1)[C@H](COC(=O)c1ccccc1)Cc1cncn1C` [Example 15, O-Benzoyl Pilocarpic Acid 4-Chlorobenzyl Ester], in data set [3] (25 μl of 0.125% (pilocarpine nitrate equivalent), FIG. 6), the “time for which miotic effect is apparent” value is “up to 4.5 hours”. In data set [5] (setting [17]), the half-life is 0.283 h. For the same compound, the logD in data set [2] (setting [12]) worked out at 4.75. Further, in data set [7], the “kOH” value came to 0.0567 M⁻¹ s⁻¹.

As to `CC[C@H](C(=O)OCCc1ccccc1)[C@H](COC(=O)c1ccccc1)Cc1cncn1C` [Example 16, O-Benzoyl Pilocarpic Acid 2-Phenylethyl Ester], the half-life in data set [5] (setting [17]) amounted to 0.25 h. For the same compound, in data set [2] (setting [12]), the logD stood at 4.6. Further, the “kOH” value in data set [7] was 0.0633 M⁻¹ s⁻¹.

With `CC[C@H](C(=O)OCc1ccccc1)[C@H](COC(=O)c1cccc(Cl)c1)Cc1cncn1C` [Example 17, O-3-Chlorobenzoyl Pilocarpic Acid Benzyl Ester], the “time for which miotic effect is apparent” value in data set [3] (setting [16]) is “up to 4.5 hours”. Besides, the half-life in data set [5] (setting [17]) turned out to be 0.417 h. Moreover, in data set [2] (setting [12]), the logD amounted to 4.93. Further, the “kOH” value in data set [7] worked out at 0.243 M⁻¹ s⁻¹.

As to `CCCC(=O)OCC(Cc1cncn1C)C(CC)C(=O)OCc1ccc(C)cc1` (centres unmarked) [Example 18, O-Butyryl Pilocarpic Acid 4-Methylbenzyl Ester], the “time for which miotic effect is apparent” value in data set [3] (setting [16]) is “up to 4.5 hours”. Also, the half-life in data set [5] (setting [17]) came to 0.25 h. For the same compound, in data set [2] (setting [12]), the logD worked out at 4.09. Moreover, the “kOH” value in data set [7] was found to be 0.0583 M⁻¹ s⁻¹.

`CC[C@H](C(=O)OCc1ccccc1)[C@H](COC(=O)Cc1ccccc1)Cc1cncn1C` [Example 19, O-Phenylacetyl Pilocarpic Acid Benzyl Ester]: the “time for which miotic effect is apparent” value in data set [3] (setting [16]) is given as “up to 4.5 hours”. Moreover, in data set [5] (setting [17]), the half-life worked out at 0.0667 h. Moreover, in data set [2] (setting [12]), the logD is 3.85. Also, the “kOH” value in data set [7] stood at 0.362 M⁻¹ s⁻¹.

As to `CC[C@H](C(=O)OCc1ccccc1)[C@H](COC(=O)c1cccnc1)Cc1cncn1C` [Example 20, O-Nicotinoyl Pilocarpic Acid Benzyl Ester], the “time for which miotic effect is apparent” value in data set [3] (setting [16]) is on record as “up to 4.5 hours”. Further, the half-life in data set [5] (setting [17]) turned out to be 0.1 h. In data set [2] (setting [12]), the logD was 2.9. For the same compound, the “kOH” value in data set [7] came to 0.74 M⁻¹ s⁻¹.

Regarding `CC[C@@H]1C(=O)OC[C@@H]1Cc1cncn1C` [Pilocarpine, reference compound], the “shelf life in aqueous solutions” value in data set [6] (pilocarpine, pH 6.4 and 20° C.) is “less than 1 year”. Also, the “water solubility of pilocarpine” value in data set [4] (free base form and various salts) is given as “extremely water-soluble”.
